Measured values taken from patent publication US7132261B2, “Orphan receptor” (Karo Bio AB, priority 1995, dated 2006).
Where two headings read alike, the source gives them in different places.

Tests used:
clone 29 protein (rERβ) [1] = biological target: T1, clone 29 protein (rERβ) (Rattus norvegicus, UniProt Q62986); assay: Ligand competition studies against [3H]E2, clone 29 protein in reticulocyte lysate; type: binding; set-up: The open reading frame encodes a protein of 485 amino acid residues (counted from the first methionine); details: for times less effective as competitor (compared with unlabelled E2): 5 nM [3H]E2, 16 h at 8° C.; for efficient competition with [3H]E2 for binding: 5 nM [3H]E2, highest concentrations used (1000 fold excess)
Source text: Bound and unbound steroids were separated with a dextran-coated charcoal assay (Ekman, P., Barrack, E. R., Greene, G. L., Jensen, E. V., & Walsh, P. C. (1983) J. Clin. Endocrinol Metab. 57, 166–176).

clone 29 protein (rERβ) [2] = biological target: T1, clone 29 protein (rERβ); assay: Transactivation analysis in CHO-cells (ERE-ALP reporter, clone 29 expression vector); type: cell-based; set-up: The open reading frame encodes a protein of 485 amino acid residues (counted from the first methionine); expressed in transfected cells; host or cells: CHO-K1 cells transiently transfected with pCMV29 and pERE-ALP; details: for stimulation of transcriptional activity of clone 29 protein: highest concentration tested 1000 nM
Source text: The expression vector pCMV29 was constructed by inserting the 2.6 kb clone 29 fragment in the EcoRI site of the expression vector pCMV5 (Andersson, S., Davis, D.L., Dahlbäck, H., Jörnvall, H., & Russell, D.W. (1989) J. Biol. Chem. 264, 8222–8229). The pERE-ALP reporter construct contains a secreted form of the plancental alkaline phosphatase gene (Berger, J., Hauber, J., Hauber, R., Geiger, R., & Cullen, B.R. (1988) Gene 66 1–10) and the MMTV-LTR in which the glucocorticoid response elements were replaced by the vitellogenin promoter estrogen response element (ERE). The vector pCMV29 containing the clone 29 fragment was deposited with NCIMB, Ferguson Building, Craibstone Estate, Bucksburn, Aberdeen, Scotland, UK AB21 9YA in accordance with the Budapest Treaty on the International Recognition of the Deposit of Microorganisms for the Purposes of Patent Procedure on 26 May 2006, under accession No. NCIMB 41404. The deposit was named “Escherichia coli DH5 prat ER (CmV29)”. All restrictions on the availability to the public of the material deposited will be irrevocably removed upon the granting of a patent.
CHO-K1 cells were seeded in 12-well plates at approximately 1.7×10^5 cells per well in phenol-red free Ham F12 medium with 5% FCS (dextran-coated charcoal treated) and 2 mM Lglutamine. After 24 h the cells were transfected with 250 ng pERE-ALP vector and 50 ng pCMV29 using lipofectamine (Gibco) according to the manufacturer's instructions. After five hours of incubation the cells were washed and refed with 0.5 ml phenol-red free Coon's F-12 medium containing 5% serum substitute (SRC 3000, Tissue Culture Services Ltd., Botolph Claydon, Buckingham, UK) 2 mM Lglutamine and 50 μg/ml gentamicin plus hormones as indicated. After 48 h the medium was assayed for alkaline phosphatase (ALP) activity by a chemiluminescence assay. A 10 μl aliquot of the cell culture medium was mixed with 200 μl assay buffer (10 mM diethanolamine pH 10.0 1 mM MgCl2 and 0.5 mM CSPD (Tropix Inc. Boston, USA) ) and incubated for 20 min at 37° C. before measurement in a microplate luminometer (Luminoskan; Labsystems, Finland) with integral measurement for 1 second. The ALP activity of ERE-reporter alone was set at 1.
To investigate the transcriptional regulatory properties of clone 29 protein, we performed co-transfection experiments in which CHO cells were transfected with a clone 29 protein expression vector and/or an estrogen-responsive reporter gene construct. […] CHO-cells were transiently transfected with the ERE-reporter plasmid and the clone 29 protein expression plasmid. […] Alkaline phosphatase activity (ALP) was measured as described and the activity in the absence of ligand (control) was set at 1.

rERβ = biological target: T2, rERβ (Rattus norvegicus, UniProt Q62986); assay: Equilibrium binding saturation experiments with [125I]-E2, rERβ
T2 construct: Clone 29 protein consists of 485 amino acid residues; made in house; host or cells: rabbit reticulocyte lysate in vitro translation (Promega)
Source text: Equilibrium binding saturation experiments (Kd-determinations)

T1 sequence (Q62986 46-530): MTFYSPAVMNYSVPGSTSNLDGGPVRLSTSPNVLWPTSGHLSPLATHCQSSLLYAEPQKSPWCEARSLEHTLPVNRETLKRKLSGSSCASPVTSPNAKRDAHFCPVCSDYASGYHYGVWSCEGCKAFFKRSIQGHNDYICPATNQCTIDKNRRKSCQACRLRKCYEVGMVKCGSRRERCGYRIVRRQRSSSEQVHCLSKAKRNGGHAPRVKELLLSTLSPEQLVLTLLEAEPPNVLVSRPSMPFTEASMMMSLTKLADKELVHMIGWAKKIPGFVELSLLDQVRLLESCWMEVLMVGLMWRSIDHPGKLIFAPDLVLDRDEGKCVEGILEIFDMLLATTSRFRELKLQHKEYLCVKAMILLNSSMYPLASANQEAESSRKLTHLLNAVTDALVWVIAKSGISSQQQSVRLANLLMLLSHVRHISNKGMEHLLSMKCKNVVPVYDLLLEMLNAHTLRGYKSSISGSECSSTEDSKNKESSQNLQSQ
T2 sequence (Q62986 46-530): as above

Compound | times less effective as competitor (compared with unlabelled E2) (clone 29 protein (rERβ) [1]) [times] | stimulation of transcriptional activity of clone 29 protein (clone 29 protein (rERβ) [2]) | efficient competition with [3H]E2 for binding (clone 29 protein (rERβ) [1]) | other results
CC/C(=C(/CC)c1ccc(O)cc1)c1ccc(O)cc1 [diethylstilbestrol] | 5 |  |  | 
C[C@]12CC[C@@H](O)C[C@@H]1CC[C@@H]1[C@@H]2CC[C@]2(C)[C@@H](O)CC[C@@H]12 [5α-androstane-3α,17β-diol] | 150 | could not stimulate transcriptional activity | Neither testosterone, progesterone, corticosterone nor 5α-androstane-3α,17β-diol were efficient competitors | 
C[C@]12CC[C@@H]3c4ccc(O)cc4CC[C@H]3[C@@H]1C[C@@H](I)[C@@H]2O [[^125I]-E2, 16α[^125I]-17β-estradiol] |  |  |  | Kd (rERβ; read-out: Kd (Hill-plot)): 0.24 nM; Kd (rERβ; read-out: Kd (Scatchard-plot)): 0.42 nM
C[C@]12CC[C@@H]3c4ccc(O)cc4CC[C@H]3[C@@H]1C[C@@H](O)[C@@H]2O [estriol] | 15 |  |  | 
CC(=O)[C@H]1CC[C@H]2[C@@H]3CCC4=CC(=O)CC[C@]4(C)[C@H]3CC[C@]12C [progesterone] |  | could not stimulate transcriptional activity | Neither testosterone, progesterone, corticosterone nor 5α-androstane-3α,17β-diol were efficient competitors | 
C[C@]12CC[C@H](O)C[C@@H]1CC[C@@H]1[C@@H]2CC[C@]2(C)[C@@H](O)CC[C@@H]12 [5α-androstane-3β,17β-diol] |  | could stimulate transcriptional activity, albeit at higher concentrations |  | 
C[C@]12C[C@H](O)[C@H]3[C@@H](CCC4=CC(=O)CC[C@@]43C)[C@@H]1CC[C@@H]2C(=O)CO [corticosterone] |  |  | Neither testosterone, progesterone, corticosterone nor 5α-androstane-3α,17β-diol were efficient competitors | 
C[C@]12CC[C@H]3[C@@H](CCC4=CC(=O)CC[C@@]43C)[C@@H]1CC[C@@H]2O [testosterone] |  | could not stimulate transcriptional activity | Neither testosterone, progesterone, corticosterone nor 5α-androstane-3α,17β-diol were efficient competitors | 
CCCCN(C)C(=O)CCCCCCCCCC[C@@H]1Cc2cc(O)ccc2[C@H]2CC[C@]3(C)[C@@H](O)CC[C@H]3[C@H]12 [ICI-1624384] |  |  |  | suppression of the constitutive transcriptional activity of clone 29 protein (clone 29 protein (rERβ) [2]; no E2 added, not shown): could be suppressed
